Type in all cases: cell-based
The test system of test [1] is JeKo-1 MCL mCherry+ cells. The test is described as follows: IFN-γ secretion of CER1236 T cells co-cultured with ibrutinib-treated JeKo-1 cells (ELLA). As to conditions: JeKo-1 pretreated 20 μM Ibrutinib 48 h, co-culture 0.5 μM Ibrutinib, 120 h. Here is the method: After 120 h, IFN-γ secretion was measured using ELLA automated ELISA.
Test [2] relates to REC-1 cells. The test is described as follows: Cytokine induction in CER T / REC-1 co-cultures (multiparametric ELISA). As to conditions: for cytokine response (GrB, IFN-γ, TNF-α) with BTK inhibitor: ibrutinib-induced phosphatidylserine exposure. How it is done:
FIGS. 16A-16H: Induction of Cytokines in Ibrutinib-Treated Co-Cultures of CER1183 and CER1234 T cells and REC-1 Target Cells. Samples depicted in bar graphs from left to right, untransduced, CER-1183, and CER-1234. FIG. 16A: TNFα induction. FIG. 16B: IL-2 induction. FIG. 16C: IFNγ. FIG. 16D: IL-5 induction. FIG. 16E: IL-6 induction. FIG. 16F: IL-10 induction. FIG. 16G: IL-4 induction. FIG. 16H: granzyme B induction.
Cytokine induction was assessed by multiparametric ELISA using conditioned supernatants harvested after 96 hours in the cytotoxicity assay described above.
CER T-cell activation was assessed by measuring induction of IFN-gamma by plate- and cell-based assays. Single induction plate assay: varying concentrations of phosphatidylserine (PS) or phosphatidylethanolamine (PE), a control membrane phospholipid not recognized by wild type TIM-4 (wtTIM-4), were coated onto high-binding tissue culture plates. CER T cells were added and IFN-γ levels were measured 24 hours after ligand exposure by ELISA. EC50 concentrations were determined by nonlinear regression (agonist vs. response-variable slope (4 parameters)). Induction by recursive stimulation plate assay: CER T cells were added to phosphatidylserine coated plates (2.5-20 μg/mL PS coating). Five days later, CER T cells were transferred to uncoated plates with fresh T cell optimizer media for 24 hours. Then, CER T cells were transferred again to a fresh PS coated plate. Supernatant was collected to assess IFN-γ induction by ELISA at various timepoints during re-stimulation (24, 72, and 120 hours). Cell-based assay: cytokine induction was assessed by multiparametric ELISA using conditioned supernatants harvested after 120 hours from the cytotoxicity assay described below.

For test [3], the system named is REC-1 cells. In words: Phagocytosis of pHrodo-labeled ibrutinib-treated REC-1 cells by CER T cells. The source says:
FIG. 13A: Representative flow cytometry histograms showing engulfment of pHrodo red-labeled REC-1 target cells by CER1234, CER1161, and CER1183 T cells. FIG. 13B: Graphical summary of flow cytometry data showing engulfment of pHrodo red-labeled REC-1 target cells by CER1234, CER1161, and CER1183 T cells. * P<0.01, ** P<0.001, *** P<0.0001; mean+SD, n=4. FIG. 13C: Representative fluorescence microscopy images (at 40×) showing engulfment of pHrodo red-labeled REC-1 target cells by CER1234, CER1161, and CER1183 T cells. FIG. 13D: Engulfed pHrodo-green-labeled REC-1 tumor fragments co-localize into Lyso-tracker red-labeled lysosomes.
Phagocytosis was assessed in co-culture assays of REC-1 cells with CER T cells. […] The percentage of pHrodo red-positive cells was determined by flow cytometry after 16 or 40 hours of co-culture. The localization of tumor fragments in CER T-cell lysosomal compartments was assessed in a separate experiment with REC-1 cells labeled with pHrodo green; following co-culture, all cells were labeled with Lyso-tracker red. Visualization of engulfment was performed by fluorescence microscopy. 1-way ANOVA with Dunnett's post hoc test was performed compared with untransduced T cells.

Data on 2 substances can be found in patent US20250127896A1, “CHIMERIC TIM4 RECEPTORS AND USES THEREOF” (CERO THERAPEUTICS HOLDINGS, INC., priority 2021, published 2025).

Take “CER-1236: chimeric Tim4 receptor: Tim4 binding domain-CD28tm-CD28-CD3z-TLR2 TIR, SEQ ID NO:19; tested as transduced T cells”: in test [1], the “IFN-γ response with ibrutinib” value is listed as “enhances CER1236 T cell IFN-γ response”.
“CER-1234: chimeric Tim4 receptor: Tim4 binding domain-CD28tm-CD28-TLR2 TIR-CD3z, SEQ ID NO:18; tested as transduced T cells”: in the test with REC-1 cells [2] (co-culture with REC-1 cells, 0.5 μM ibrutinib), the “IL-2, IL-4 and IL-6” value is on record as “nominally increased”. In addition, in the test with REC-1 cells [2] (co-culture with REC-1 cells, 0.5 μM ibrutinib, 96 hours), the “cytokine induction: TNF-α, IFN-γ, IL-10, IL-5, granzyme B” value is “induced”. Also, the “cytokine response (GrB, IFN-γ, TNF-α) with BTK inhibitor” value is given as “production of Th1 cytokines” in the test on REC-1 cells [2] and “enhances CER1234 T cell cytokine response” with REC-1 cells [2] (listed as CER1234). Besides, the “localization of internalized fragments” value in the test with REC-1 cells [3] (BTK inhibitor-primed REC-1 cells) is recorded as “internalized fragments were localized to lysosomal compartments”. The “engulfment of pHrodo red+ target cells” value in the test on REC-1 cells [3] (REC-1 pretreated 10 μM ibrutinib, 16 and 40 hours of co-culture) is recorded as “increased engulfment of pHrodo red+target cells relative to untransduced T cells”.
